Measured values reported in ChEMBL document CHEMBL1201862, “PubChem BioAssay data set” (2004).
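1) Cells in 96-well plates. 2) Compound, 48 h, 5 concentrations. 3) Linear interpolation between surrounding doses. 4) Unreached endpoint = highest concentration. Abbreviation: GI50, concentration required for 50% inhibition of growth.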 The source made the active and inactive calls. Rule as the data show it: active = GI50 up to about 1.1 µM and inactive = higher.

Columns and labels:
Experiment in all cases: growth of human tumour cells (NCI), 48 h
A549 = system: A549
MOLT-4 = system: MOLT-4
SNB-19 = system: SNB-19
NCI-H522 = system: NCI-H522
MDA-MB-435 = system: MDA-MB-435
PC-3 = system: PC-3
ACHN = system: ACHN
HT-29 = system: HT-29
MCF7 = system: MCF7
HOP-62 = system: HOP-62
HCC 2998 = system: HCC 2998
UO-31 = system: UO-31
EKVX = system: EKVX
M14 = system: M14
HL-60 = system: HL-60
SK-MEL-5 = system: SK-MEL-5
MDA-N = system: MDA-N
KM12 = system: KM12
NCI-H460 = system: NCI-H460
OVCAR-4 = system: OVCAR-4

Measured: GI50

Nc1ncnc2c1ncn2C1OC(COP(=O)(O)CP(=O)(O)O)C(O)C1O (centres undefined)
inactive: A549 > 100 µM | MOLT-4 > 100 µM | SNB-19 > 100 µM | NCI-H522 > 100 µM | MDA-MB-435 > 100 µM | PC-3 > 100 µM | ACHN > 100 µM | HT-29 > 100 µM | MCF7 > 100 µM | HOP-62 > 100 µM | HCC 2998 > 100 µM | UO-31 > 100 µM | EKVX > 100 µM | M14 > 100 µM | HL-60 > 100 µM | SK-MEL-5 > 100 µM | MDA-N > 100 µM | KM12 > 100 µM

Cc1nc(/C(=N\n2cnnc2)Nc2ccc(Br)cc2)no1
inactive: A549 > 100 µM | MOLT-4 > 100 µM | SNB-19 > 100 µM | NCI-H522 > 100 µM | MDA-MB-435 > 100 µM | PC-3 > 100 µM | ACHN > 100 µM | NCI-H460 > 100 µM | HT-29 > 100 µM | MCF7 > 100 µM | HOP-62 > 100 µM | OVCAR-4 > 100 µM | HCC 2998 > 100 µM | UO-31 > 100 µM | EKVX > 100 µM | M14 > 100 µM | SK-MEL-5 > 100 µM | MDA-N > 100 µM | KM12 > 100 µM

Clc1ccc(C2ON=C(c3ccccc3)N2C23CC4CC(CC(C4)C2)C3)c(Cl)c1 (centres undefined)
inactive: A549 > 10 µM | MOLT-4 > 10 µM | SNB-19 > 10 µM | NCI-H522 > 10 µM | MDA-MB-435 > 10 µM | PC-3 > 10 µM | ACHN > 10 µM | NCI-H460 > 10 µM | HT-29 > 10 µM | MCF7 > 10 µM | HOP-62 > 10 µM | OVCAR-4 > 10 µM | HCC 2998 > 10 µM | UO-31 > 10 µM | EKVX > 10 µM | M14 > 10 µM | SK-MEL-5 > 10 µM | MDA-N > 10 µM | KM12 > 10 µM

COc1ccc(/C=N/NC(=S)Nc2cc(C)ccc2OC)cc1
inactive: A549 45.1 µM | MOLT-4 9.98 µM | SNB-19 46.1 µM | NCI-H522 19.3 µM | MDA-MB-435 25.6 µM | PC-3 34.4 µM | ACHN 37.2 µM | HT-29 10.1 µM | MCF7 22.9 µM | HOP-62 34.8 µM | OVCAR-4 23.8 µM | UO-31 37.9 µM | EKVX 20.8 µM | M14 23.1 µM | HL-60 20.3 µM | SK-MEL-5 15.6 µM | MDA-N 21.1 µM | KM12 31.7 µM

Cc1ccc2c(=O)c(C(=O)N(CCO)CCO)c[nH]c2n1
inactive: A549 > 100 µM | MOLT-4 > 100 µM | SNB-19 > 100 µM | NCI-H522 > 100 µM | MDA-MB-435 > 100 µM | PC-3 > 100 µM | ACHN > 100 µM | NCI-H460 > 100 µM | HT-29 > 100 µM | MCF7 > 100 µM | HOP-62 > 100 µM | OVCAR-4 > 100 µM | UO-31 > 100 µM | EKVX > 100 µM | M14 > 100 µM | HL-60 > 100 µM | SK-MEL-5 > 100 µM | MDA-N > 100 µM | KM12 > 100 µM

C=C(C)[C@@H]1C[C@H]2O[C@](O)(C(=C)CC(=O)/C=C(/C)C[C@@H]3OC(=O)[C@]24O[C@@H]34)[C@H]1O
inactive: A549 > 100 µM | MOLT-4 > 100 µM | SNB-19 > 100 µM | NCI-H522 > 100 µM | MDA-MB-435 > 100 µM | PC-3 > 100 µM | ACHN > 100 µM | NCI-H460 > 100 µM | HT-29 > 100 µM | MCF7 > 100 µM | HOP-62 > 100 µM | OVCAR-4 > 100 µM | HCC 2998 > 100 µM | UO-31 > 100 µM | EKVX > 100 µM | M14 > 100 µM | SK-MEL-5 > 100 µM | MDA-N > 100 µM | KM12 > 100 µM

CC1=CC[C@@]2(CO)[C@@H]([C@@H]1C)[C@H]1CC[C@@H]3[C@@]4(C)CC[C@H](O)C(C)(C)[C@@H]4CC[C@@]3(C)[C@]1(C)C[C@@H]2O
inactive: A549 15.9 µM | MOLT-4 21.3 µM | SNB-19 35.1 µM | NCI-H522 8.91 µM | MDA-MB-435 40.2 µM | PC-3 13.3 µM | ACHN 20.7 µM | NCI-H460 16.3 µM | HT-29 29.8 µM | MCF7 8.43 µM | HOP-62 14.3 µM | OVCAR-4 20.8 µM | UO-31 53.3 µM | EKVX 33.3 µM | M14 28.2 µM | HL-60 11.7 µM | SK-MEL-5 13 µM | MDA-N 81.7 µM | KM12 38.5 µM

CC(=O)Nc1ccc2c(C)c3c(nc2n1)[nH]c1ccccc13
inactive: A549 41.1 µM | MOLT-4 19.7 µM | NCI-H522 20 µM | MDA-MB-435 29.6 µM | PC-3 27.2 µM | ACHN 17.8 µM | NCI-H460 21.1 µM | HT-29 27.9 µM | MCF7 19.2 µM | HOP-62 32.2 µM | OVCAR-4 38.7 µM | HCC 2998 33 µM | UO-31 24.5 µM | EKVX 23.1 µM | M14 25.4 µM | SK-MEL-5 14.9 µM | MDA-N 18.1 µM | KM12 21.9 µM
